Experimental data published in US11013696B2, “Lipids and lipid compositions for the delivery of active agents” (Novartis AG, priority 2013, dated 2021).

How the values were obtained:
[1] = Percent encapsulation of plasmid DNA in lipid nanoparticles (Quant-iT Ribogreen); format: physicochemical
Experimental: All equipment and disposable supplies are certified free of RNase activity by the manufacturer or rendered RNase free by use of the RNaseZap reagent (LifeTechnologies). Plasmid is encapsulated at a cationic lipid amine to DNA phosphate (N:P) molar ratio of 4:1. Lipids (cationic lipid, DSPC, cholesterol and lipidated PEG) are dissolved in ethanol. The molar ratios are 40:10:38:2, respectively. The mixture is sonicated briefly, then gently agitated for 5 minutes and then maintained at 37° C. until use. Plasmid is exchanged into citrate buffer pH 6.0 by use of Amicon Ultra-15 centrifugal concentrators, and the final concentration is adjusted to 0.053 mg/ml and held at 37° C. until use. An equal volume of lipids in ethanol, plasmid in citrate buffer, and citrate buffer alone are drawn into disposable syringes. Tubing leading from syringes containing lipids and DNA are attached to the T junction, and tubing leading from the syringe containing citrate buffer alone is paired with the tubing exiting the T-junction over a collection vessel containing a stir bar on an active stir plate. Syringes are placed in a syringe pump set to expel contents at a flow rate of 1 ml per minute. The pump is activated, and the collected DNA in lipid nanoparticles is transferred to SnakeSkin dialysis tubing (10,000 MWCO, Thermo Scientific). Material is dialyzed against RNAse- and pyrogen-free 1× phosphate buffered saline overnight at 4° C.
Percent encapsulation of plasmid DNA in lipid nanoparticles is determined using the Quant-iT Ribogreen RNA Assay kit (Life Technologies). The LNP-DNA suspension is assayed in buffer (DNA outside the particle), and buffer plus Triton X-100 detergent (total DNA). The difference calculated is the DNA inside the particle. Prepare a 1000 ng/mL stock using unpackaged plasmid and use this to generate a standard curve (0 ng/ml, 15.63-1000 ng/ml) in TE and TE+0.75% Triton X-100. Prepare LNP-plasmid samples in TE buffer and TE buffer+0.75% Triton X-100 with appropriate dilution so that reading is in the range of standard curve (25 fold). In a 384-well plate (Costar non-treated #3573) add 0.04 ml of standard (in duplicate) or sample (in triplicate) per well. Dilute Ribogreen reagent 240-fold in TE buffer and add 0.06 ml per well. Mix contents of wells and measure fluorescence (excitation=480 nm, emission=520 nm). Subtract background values (no DNA) from standard and test sample values and determine the concentrations of DNA in the samples using the standard curves. Determine the percent encapsulation of the sample by dividing the difference in concentrations between sample+triton and sample in buffer alone by the sample+triton concentration.

[2] = siRNA encapsulation in lipid nanoparticles (SYBR Gold); format: physicochemical; details: for % Encap.: FVII siRNA; for % encapsulation siRNA FVII: Table 2, FVII siRNA in LNP with the cationic lipid
Outline: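 SYBR Gold fluorescence (ex 485/em 530 nm) of LNPs made by impinging-jet mixing of ethanolic lipids (cationic, cholesterol, optional DSPC, PEG/stealth lipid) with siRNA in citrate pH 4-6, siRNA:lipid ~0.05 wt/wt. Samples with and without Triton X-100 gave free and total siRNA for encapsulation efficiency.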

SMILES | % Encap. ([1]; hLep plasmid) [%] | % Encap. ([1]; pDNA) [%] | % Encap. [2] [%] | % encapsulation siRNA FVII [2] [%]
CCCCCCCCCCCCC(CCOC(=O)CCCCC(COC(=O)CCCCCCC)COC(=O)CCCCCCC)OC(=O)OCCCN(CC)CC (centres unmarked) [Example 1, 2-(10-dodecyl-3-ethyl-8,14-dioxo-7,9,13-trioxa-3-azaoctadecan-18-yl)propane-1,3-diyl dioctanoate] | 93.5 | 94.3 | – | –
CCCCCCCCCCCCC(CCOC(=O)CCCCC(OCCCCCCCC)OCCCCCCCC)OC(=O)OCCCN(CC)CC (centres unmarked) [Example 16, 3-(((3-(diethylamino)propoxy)carbonyl)oxy)pentadecyl 6,6-bis(octyloxy)hexanoate] | 96.7 | 96.4 | 88.9 | 88.9
CCCCCCCCCCCCC(CCOC(=O)CCCCC(OCC(CC)CCCC)OCC(CC)CCCC)OC(=O)OCCCN(CC)CC (centres unmarked) [Example 18, 3-(((3-(diethylamino)propoxy)carbonyl)oxy)pentadecyl 6,6-bis((2-ethylhexyl)oxy)hexanoate] | – | – | – | 91.2
CCCCCCCCCC(=O)OCCC(CC(CCCCCCCC)CCCCCCCC)OC(=O)OCCCN(C)C (centres unmarked) [Example 70, 3-(((3-(dimethylamino)propoxy)carbonyl)oxy)-5-octyltridecyl decanoate] | – | – | – | 80.0
CCCCC/C=C\C/C=C\CCCCCCCC(=O)OCC(COC(=O)CCCCCCC/C=C\C/C=C\CCCCC)OC(=O)CCC(CCCCCCCCCCCC)OC(=O)OCCCN(C)C (centres unmarked) [Example 80, (9Z,9′Z,12Z,12′Z)-2-((4-(((3-(dimethylamino)propoxy)carbonyl)oxy)hexadecanoyl)oxy)propane-1,3-diyl bis(octadeca-9,12-dienoate)] | – | – | 85.2 | 85.2
CCCCC/C=C\C/C=C\CCCCCCCCC(CCC(=O)OC(COC(=O)CCCCCCC)COC(=O)CCCCCCC)OC(=O)OCCCN(C)C (centres unmarked) [Example 94, 2-(((13Z,16Z)-4-(((3-(dimethylamino)propoxy)carbonyl)oxy)docosa-13,16-dienoyl)oxy)propane-1,3-diyl dioctanoate] | 95.0 | 89.3 | 74.8 | 74.8
